In patent US12247010B2, “Tubulin inhibitors” (LIN BIOSCIENCE PTY LTD., priority 2017, dated 2025):

The compounds below were run on U87MG cells (assay: Cytotoxicity assay (cell viability, CellTiter 96 Aqueous MTS)). Details: Homo sapiens, U-87 MG, 72 h, 72 hours incubation, starting concentration 50 uM, 9 point half log dilution, average where tested repeatedly.
Format: cell-based
Method: Example 3: Cytotoxicity Assay
U87MG cells were plated at a density of 7×10^3 cells/well and allowed to seed overnight. Cells were then treated with compounds from Table 1 or CMPD-1 (4-(2′-fluoro-[1,1′-biphenyl]-4-yl)-N-(4-hydroxyphenyl)butanamide as a positive control) were added to cells at a starting concentration of 50 uM, with a 9 point half log dilution, and incubated for 72 hours prior to viability determination. IC50 values were calculated from cell viability as measured using the CellTiter 96® Aqueous MTS reagent from Promega©, and the results are shown in Table 2.
Compound `O=C(CCCc1ccc(-c2ccc3[nH]c(=O)oc3c2)cc1)Nc1cccnc1` [Compound 208, 4-(4-(2-oxo-2,3-dihydrobenzo[d]floxazol-6-yl)phenyl)-N-(pyridin-3-yl)butanamide] has an IC50 of 1000 to 5000 nM. In the case of `Cc1cc(C(=O)NCCCc2ccc(-c3ccccc3F)cc2)cc(C)c1O` [Compound 127, N-(3-(2′-fluoro-[1,1′-biphenyl]-4-yl)propyl)-4-hydroxy-3,5-dimethylbenzamide], the IC50 is reported as over 5000 nM. With `Cn1ncc2cc(-c3ccc(CCCC(=O)Nc4cccnc4)cc3)ccc21` [Compound 148, 4-(4-(1-methyl-1H-indazol-5-yl)phenyl)-N-(pyridin-3-yl)butanamide] the IC50 was under 500 nM. Compound `O=C(CCCc1ccc(-c2ccccc2OC(F)(F)F)cc1)Nc1cccnc1` [Compound 154, N-(pyridin-3-yl)-4-(2′-(trifluoromethoxy)-[1,1′-biphenyl]-4-yl)butanamide] has an IC50 of 1000 to 5000 nM. Compound `O=C(NCCCc1ccc(-c2ccccc2F)cc1)c1ccc2[nH]ccc2c1` [Compound 74, N-(3-(2′-fluoro-[1,1′-biphenyl]-4-yl)propyl)-1H-indole-5-carboxamide] has an IC50 of 501 to 1000 nM. For `Cc1cc(C(=O)NCCCc2ccc(-c3cnc4[nH]ccc4c3)cc2)no1` [Compound 235, N-(3-(4-(1H-pyrrolo[2,3-b]pyridin-5-yl)phenyl)propyl)-5-methylisoxazole-3-carboxamide], the IC50 was under 500 nM. `O=C(CCCc1ccc(-c2ccncc2)cc1)Nc1cccnc1` [Compound 202, N-(pyridin-3-yl)-4-(4-(pyridin-4-yl)phenyl)butanamide] showed an IC50 of over 5000 nM. Work on `O=C(CCCc1ccc(-c2cnc3ccccc3c2)cc1)Nc1cccnc1` [Compound 183, N-(pyridin-3-yl)-4-(4-(quinolin-3-yl)phenyl)butanamide] yielded an IC50 of 1000 to 5000 nM. With `Cc1ccc(C(=O)NCCCc2ccc(-c3ccccc3F)cc2)cn1` [Compound 71, N-(3-(2′-fluoro-[1,1′-biphenyl]-4-yl)propyl)-6-methylnicotinamide] the IC50 was under 500 nM. Work on `O=C(NCCCc1ccc(-c2ccccc2F)cc1)c1ccc2nccnc2c1` [Compound 123, N-(3-(2′-fluoro-[1,1′-biphenyl]-4-yl)propyl)quinoxaline-6-carboxamide] yielded an IC50 of over 5000 nM. `Cc1ccccc1-c1ccc(CCCC(=O)Nc2cccnc2)cc1` [Compound 152, 4-(2′-methyl-[1,1′-biphenyl]-4-yl)-N-(pyridin-3-yl)butanamide] showed an IC50 of over 5000 nM. Work on `Cc1ncoc1C(=O)NCCCc1ccc(-c2ccccc2F)cc1` [Compound 290, N-(3-(2′-fluoro-[1,1′-biphenyl]-4-yl)propyl)-4-methyloxazole-5-carboxamide] yielded an IC50 of over 5000 nM. Work on `COc1ccc(CC(=O)NCCCc2ccc(-c3ccccc3F)cc2)c(OC)c1` [Compound 114, 2-(2,4-dimethoxyphenyl)-N-(3-(2′-fluoro-[1,1′-biphenyl]-4-yl)propyl)acetamide] yielded an IC50 of over 5000 nM. Compound `O=C(CCCc1ccc(-c2ccc3[nH]cnc3c2)cc1)Nc1cccnc1` [Compound 195, 4-(4-(1H-benzo[d]imidazol-5-yl)phenyl)-N-(pyridin-3-yl)butanamide] has an IC50 of 501 to 1000 nM. Work on `Cc1ccc(C(=O)NCCCc2ccc(-c3ccc4[nH]c(=O)ccc4c3)cc2)cn1` [Compound 315, 6-methyl-N-(3-(4-(2-oxo-1,2-dihydroquinolin-6-yl)phenyl)propyl)nicotinamide] yielded an IC50 of under 500 nM. With `O=C(CCCc1ccc(-c2cnc3c(c2)CCC(=O)N3)cc1)Nc1cccnc1` [Compound 211, 4-(4-(7-oxo-5,6,7,8-tetrahydro-1,8-naphthyridin-3-yl)phenyl)-N-(pyridin-3-yl)butanamide] the IC50 was 1000 to 5000 nM. `Cc1ccc(CC(=O)NCCCc2ccc(-c3ccccc3F)cc2)cc1` [Compound 140, N-(3-(2′-fluoro-[1,1′-biphenyl]-4-yl)propyl)-2-(p-tolyl)acetamide] showed an IC50 of under 500 nM. Work on `O=C(CCCc1ccc(-c2cc3cn[nH]c3cc2F)cc1)Nc1cccnc1` [Compound 209, 4-(4-(6-fluoro-1H-indazol-5-yl)phenyl)-N-(pyridin-3-yl)butanamide] yielded an IC50 of under 500 nM. `O=C(CCCc1ccc(-c2ccccc2F)cc1)NCc1ccccn1` [Compound 43, 4-(2′-fluoro-[1,1′-biphenyl]-4-yl)-N-(pyridin-2-ylmethyl)butanamide] was tested, and the IC50 was 1000 to 5000 nM. Work on `Cn1cc2cc(-c3ccc(CCCC(=O)Nc4cccnc4)cc3)ccc2n1` [Compound 164, 4-(4-(2-methyl-2H-indazol-5-yl)phenyl)-N-(pyridin-3-yl)butanamide] yielded an IC50 of 501 to 1000 nM. `O=C(CCCc1ccc(-c2ccc3nonc3c2)cc1)Nc1cccnc1` [Compound 161, 4-(4-(benzo[c][1,2,5]oxadiazol-5-yl)phenyl)-N-(pyridin-3-yl)butanamide] gave an IC50 of over 5000 nM. `Cc1ncc(C(=O)NCCCc2ccc(-c3ccc4[nH]ncc4c3C)cc2)s1` [Compound 308, 2-methyl-N-(3-(4-(4-methyl-1H-indazol-5-yl)phenyl)propyl)thiazole-5-carboxamide] showed an IC50 of under 500 nM. For `O=C(NCCCc1ccc(-c2ccccc2F)cc1)c1ccc(C(F)(F)F)nc1` [Compound 83, N-(3-(2′-fluoro-[1,1′-biphenyl]-4-yl)propyl)-6-(trifluoromethyl)nicotinamide], the IC50 was 1000 to 5000 nM. `O=C(CCCc1ccc(-c2ccc3c(c2)OCC(=O)N3)cc1)Nc1cccnc1` [Compound 224, 4-(4-(3-oxo-3,4-dihydro-2H-benzo[b][1,4]oxazin-7-triazoloyl)phenyl)-N-(pyridin-3-yl)butanamide] was tested, and the IC50 was under 500 nM. Compound `Cn1cnc(S(=O)(=O)NCCCc2ccc(-c3ccccc3F)cc2)c1` [Compound 263, N-(3-(2′-fluoro-[1,1′-biphenyl]-4-yl)propyl)-1-methyl-1H-imidazole-4-sulfonamide] has an IC50 of 1000 to 5000 nM. `O=C(Cc1ccc2c(c1)OCCO2)NCCCc1ccc(-c2ccccc2F)cc1` [Compound 293, 2-(2,3-dihydrobenzo[b][1,4]dioxin-6-yl)-N-(3-(2′-fluoro-[1,1′-biphenyl]-4-yl)propyl)acetamide] was tested, and the IC50 was over 5000 nM. `COc1ccc(CC(=O)NCCCc2ccc(-c3ccccc3F)cc2)cc1F` [Compound 126, 2-(3-fluoro-4-methoxyphenyl)-N-(3-(2′-fluoro-[1,1′-biphenyl]-4-yl)propyl)acetamide] gave an IC50 of 1000 to 5000 nM. With `Cn1cc(CNC(=O)CCCc2ccc(-c3ccccc3F)cc2)cn1` [Compound 48, 4-(2′-fluoro-[1,1′-biphenyl]-4-yl)-N-((1-methyl-1H-pyrazol-4-yl)methyl)butanamide] the IC50 was 1000 to 5000 nM. Compound `COc1cccc(-c2ccc(CCCNC(=O)c3ccc(C)nc3)cc2)c1F` [Compound 234, N-(3-(2′-fluoro-3′-methoxy-[1,1′-biphenyl]-4-yl)propyl)-6-methylnicotinamide] has an IC50 of under 500 nM. With `O=C(NCCCc1ccc(-c2ccccc2F)cc1)c1cnco1` [Compound 131, N-(3-(2′-fluoro-[1,1′-biphenyl]-4-yl)propyl)oxazole-5-carboxamide] the IC50 was over 5000 nM. With `COc1cccc(-c2ccc(CCCNC(=O)c3cc(C)on3)cc2)c1F` [Compound 240, N-(3-(2′-fluoro-3′-methoxy-[1,1′-biphenyl]-4-yl)propyl)-5-methylisoxazole-3-carboxamide] the IC50 was 501 to 1000 nM. For `Cc1nc2cc(-c3ccc(CCCC(=O)Nc4cccnc4)cc3)ccc2n1C` [Compound 297, 4-(4-(1,2-dimethyl-1H-benzo[d]imidazol-5-yl)phenyl)-N-(pyridin-3-yl)butanamide], the IC50 was under 500 nM. `Cc1cc2[nH]ncc2cc1-c1ccc(CCCC(=O)Nc2cccnc2)cc1` [Compound 302, 4-(4-(6-methyl-1H-indazol-5-yl)phenyl)-N-(pyridin-3-yl)butanamide] showed an IC50 of 1000 to 5000 nM. In the case of `O=C(CCCc1ccc(-c2ccc(-n3cccn3)cc2)cc1)Nc1cccnc1` [Compound 198, 4-(4′-(1H-pyrazol-1-yl)-[1,1′-biphenyl]-4-yl)-N-(pyridin-3-yl)butanamide], the IC50 is reported as 501 to 1000 nM. In the case of `Cc1ccc(C(=O)NCCCc2ccc(-c3ccccc3F)cc2)c(C)n1` [Compound 99, N-(3-(2′-fluoro-[1,1′-biphenyl]-4-yl)propyl)-2,6-dimethylnicotinamide], the IC50 is reported as 1000 to 5000 nM. With `O=C(CCCc1ccc(-c2ccc3ocnc3c2)cc1)Nc1cccnc1` [Compound 173, 4-(4-(benzo[d]oxazol-5-yl)phenyl)-N-(pyridin-3-yl)butanamide] the IC50 was 501 to 1000 nM. `Cc1cc(C(=O)NCCCc2ccc(-c3ccccc3F)cc2)on1` [Compound 128, N-(3-(2′-fluoro-[1,1′-biphenyl]-4-yl)propyl)-3-methylisoxazole-5-carboxamide] showed an IC50 of 501 to 1000 nM. Work on `O=C(NCCCc1ccc(-c2ccccc2F)cc1)C1=CN2C=CNC2C=C1` (centres unmarked) [Compound 82, N-(3-(2′-fluoro-[1,1′-biphenyl]-4-yl)propyl)-1,8a-dihydroimidazo[1,2-a]pyridine-6-carboxamide] yielded an IC50 of over 5000 nM. Compound `O=C(NCCCc1ccc(-c2ccccc2F)cc1)c1cccnn1` [Compound 65, N-(3-(2′-fluoro-[1,1′-biphenyl]-4-yl)propyl)pyridazine-3-carboxamide] has an IC50 of over 5000 nM. `O=C(CCCc1ccc(-c2ccccc2F)cc1)Nc1ccc2[nH]ncc2c1` [Compound 4, 4-(2′-fluoro-[1,1′-biphenyl]-4-yl)-N-(1H-indazol-5-yl)butanamide] showed an IC50 of 1000 to 5000 nM. Work on `COc1ccc(CC(=O)NCCCc2ccc(-c3ccc4c(cnn4C)c3)cc2)cc1` [Compound 244, 2-(4-methoxyphenyl)-N-(3-(4-(1-methyl-1H-indazol-5-yl)phenyl)propyl)acetamide] yielded an IC50 of under 500 nM. Compound `Cc1cc(C(=O)NCCCc2ccc(-c3ccccc3F)cc2)n(C)n1` [Compound 89, N-(3-(2′-fluoro-[1,1′-biphenyl]-4-yl)propyl)-1,3-dimethyl-1H-pyrazole-5-carboxamide] has an IC50 of under 500 nM. With `O=C(NCCCc1ccc(-c2ccccc2F)cc1)c1cc[nH]n1` [Compound 113, N-(3-(2′-fluoro-[1,1′-biphenyl]-4-yl)propyl)-1H-pyrazole-3-carboxamide] the IC50 was over 5000 nM. `Cc1cncc(C(=O)NCCCc2ccc(-c3ccccc3F)cc2)c1` [Compound 80, N-(3-(2′-fluoro-[1,1′-biphenyl]-4-yl)propyl)-5-methylnicotinamide] was tested, and the IC50 was 1000 to 5000 nM.
